In ChEMBL document CHEMBL1136459, “New antibacterial tetrahydro-4(2H)-thiopyran and thiomorpholine S-oxide and S,S-dioxide phenyloxazolidinones” (Bioorg Med Chem Lett, 2003) one finds MIC and ED50 data, which are given here for eleven compounds.

Structures are written as SMILES. Converted amounts (≈) assume the structure as drawn.

The ED50 is the dose at which the effect has come halfway, by size or by number of responders.

The subject of assay [1] is Staphylococcus epidermidis. In words: In vitro antibacterial activity against Staphylococcus epidermidis strains UC12084, 30031, and CDC-CNS90 (SE); range is 4-8. In kind it is functional.
Assay [2] has as its system Streptococcus pneumoniae. In words: In vitro antibacterial activity against Streptococcus pneumoniae strains ATCC 6305 and 31573 (SPN); range is 4-8.
A further assay has as its system Enterococcus faecium. In words: In vitro antibacterial activity against vancomycin-resistant Enterococcus faecium UC12712 (VRE).
In assay [3] the test system is Staphylococcus aureus. In words: In vitro antibacterial activity against linezolid-resistant Staphylococcus aureus ATCC 29213 (LRSA). In kind it is functional.
The test system of assay [4] is Moraxella catarrhalis. In words: In vitro antibacterial activity against Moraxella catarrhalis strains 30607 and 30603 (MC); range is 16-32. The format is functional.
Assay [5] deals with Haemophilus influenzae. In words: In vitro antibacterial activity against Haemophilia influenzae strains 30063 and ATCC 31517 (HI); range is 32->64. In kind it is functional.
Assay [6] has as its system Staphylococcus aureus. In words: In vitro antibacterial activity against Staphylococcus aureus strains UC12673, UC9213, ATCC 29213, and UC9271 (SA); range is 16-32. In kind it is functional.
Assay [7] deals with Moraxella catarrhalis. In words: In vitro antibacterial activity against Moraxella catarrhalis strains 30607 and 30603 (MC). The format is functional.
Assay [8] relates to Haemophilus influenzae. In words: In vitro antibacterial activity against Haemophilia influenzae strains 30063 and ATCC 31517 (HI); range is 4-16. In kind it is functional.
Assay [9] has as its system Staphylococcus epidermidis. In words: In vitro antibacterial activity against Staphylococcus epidermidis strains UC12084, 30031, and CDC-CNS90 (SE); range is 1-2. The format is functional.
For assay [10], the system named is Staphylococcus aureus. In words: In vitro antibacterial activity against Staphylococcus aureus strains UC12673, UC9213, ATCC 29213, and UC9271 (SA); range is 4-16. In kind it is functional.
The test system of assay [11] is Streptococcus pneumoniae. In words: In vitro antibacterial activity against Streptococcus pneumoniae strains ATCC6305 and 31573 (SPN).
For assay [12], the system named is Staphylococcus aureus. In words: In vitro antibacterial activity against Staphylococcus aureus strains UC12673, UC9213, ATCC 29213, and UC9271 (SA). In kind it is functional.
In assay [13] the test system is Haemophilus influenzae. In words: In vitro antibacterial activity against Haemophilia influenzae strains 30063 and ATCC 31517 (HI); range is 8-32. The format is functional.
Assay [14] relates to Staphylococcus epidermidis. In words: In vitro antibacterial activity against Staphylococcus epidermidis strains UC12084, 30031, and CDC-CNS90 (SE); range is 2-4. In kind it is functional.
Assay [15] deals with Staphylococcus epidermidis. In words: In vitro antibacterial activity against Staphylococcus epidermidis strains UC12084, 30031, and CDC-CNS90 (SE). The format is functional.
In assay [16] the test system is Haemophilus influenzae. In words: In vitro antibacterial activity against Haemophilia influenzae strains ATCC 30063 and ATCC 31517. In kind it is functional.
Assay [17] deals with Moraxella catarrhalis. In words: In vitro antibacterial activity against Moraxella catarrhalis strains 30607 and 30603 (MC); range is 8-16. In kind it is functional.
Assay [18] deals with Streptococcus pneumoniae. In words: In vitro antibacterial activity against Streptococcus pneumoniae strains ATCC 6305 and 31573 (SPN). The format is functional.
In assay [19] the test system is Staphylococcus aureus. In words: In vitro antibacterial activity against Staphylococcus aureus strains UC12673, UC9213, ATCC 29213, and UC9271 (SA); range is 2-8. The format is functional.
Assay [20] concerns Staphylococcus aureus. In words: In vitro antibacterial activity against Staphylococcus aureus strains UC12673, UC9213, ATCC 29213, and UC9271 (SA); range is 4-8. In kind it is functional.
The subject of assay [21] is Haemophilus influenzae. In words: In vitro antibacterial activity against Haemophilia influenzae strains 30063 and ATCC 31517 (HI); range is 32-64. The format is functional.
For assay [22], the system named is Haemophilus influenzae. In words: In vitro antibacterial activity against Haemophilia influenzae strains 30063 and ATCC 31517 (HI); range is 8-16. The format is functional.
In a further assay the test system is Mus musculus. In words: In vivo Efficacy of compound after peroral administration to protect the Staphylococcus aureus mouse septicemia model. In kind it is functional. The following applies: po.
Assay [23] relates to Moraxella catarrhalis. In words: In vitro antibacterial activity against Moraxella catarrhalis strains 30607 and 30603 (MC); range is 32->64. The format is functional.

With `COCC(=O)NC[C@H]1CN(c2ccc(N3CC[S+]([O-])CC3)c(F)c2)C(=O)O1`, the MIC in [1] was 4 µg/mL (≈ 10 µM); against Streptococcus pneumoniae [2], 4 µg/mL (≈ 10 µM); in the assay on Enterococcus faecium, 16 µg/mL (≈ 40.1 µM); with Staphylococcus aureus [3], above 64 µg/mL; against Moraxella catarrhalis [4] it was 16 µg/mL (≈ 40.1 µM); in the assay on Haemophilus influenzae [5] it was 32 µg/mL (≈ 80.1 µM). Further, the MIC in the assay with Staphylococcus aureus [6] came out at 16 µg/mL (≈ 40.1 µM).

Regarding `O=C(NC[C@H]1CN(c2ccc(C3CCS(=O)(=O)CC3)c(F)c2)C(=O)O1)C(F)F`, the MIC in the assay with Moraxella catarrhalis [7] was 8 µg/mL (≈ 19 µM); against Haemophilus influenzae [8], above 4 µg/mL; against Enterococcus faecium, 4 µg/mL (≈ 9.51 µM); in the assay with Staphylococcus aureus [3], 32 µg/mL (≈ 76.1 µM); in assay [9], 1 µg/mL (≈ 2.38 µM); in the assay on Staphylococcus aureus [10], 4 µg/mL (≈ 9.51 µM). The MIC with Streptococcus pneumoniae [11] was 1 µg/mL (≈ 2.38 µM).

For `O=C1O[C@@H](CNC(=O)C(F)(F)F)CN1c1ccc(C2CC[S+]([O-])CC2)c(F)c1` (stereo not given in full), the MIC against Staphylococcus aureus [12] is 8 µg/mL (≈ 18.9 µM); with Moraxella catarrhalis [7], 8 µg/mL (≈ 18.9 µM); with Haemophilus influenzae [13], 8 µg/mL (≈ 18.9 µM); in assay [14] it was 2 µg/mL (≈ 4.73 µM); in the assay on Enterococcus faecium, 4 µg/mL (≈ 9.47 µM); in the assay with Staphylococcus aureus [3], 32 µg/mL (≈ 75.8 µM).

Turning to `O=C(NC[C@H]1CN(c2ccc(N3CC[S+]([O-])CC3)c(F)c2)C(=O)O1)C1CC1`, the MIC came to 4 µg/mL (≈ 10.1 µM) with Enterococcus faecium; 64 µg/mL (≈ 162 µM) with Staphylococcus aureus [3]; 4 µg/mL (≈ 10.1 µM) in assay [15]; 16 µg/mL (≈ 40.5 µM) in the assay with Staphylococcus aureus [6]; 32 µg/mL (≈ 80.9 µM) against Haemophilus influenzae [16]; 8 µg/mL (≈ 20.2 µM) in the assay on Moraxella catarrhalis [17].

On to `COc1ccc(/C=C/C(=O)NC[C@H]2CN(c3ccc(N4CC[S+]([O-])CC4)c(F)c3)C(=O)O2)cc1`, for which the MIC against Staphylococcus aureus [12] was 4 µg/mL (≈ 8.2 µM); in the assay on Moraxella catarrhalis [7] it was above 64 µg/mL; in the assay with Enterococcus faecium, 4 µg/mL (≈ 8.2 µM); with Staphylococcus aureus [3], above 64 µg/mL; in assay [15], 2 µg/mL (≈ 4.1 µM); with Haemophilus influenzae [16], above 64 µg/mL.

For the compound `O=C(NC[C@H]1CN(c2ccc(C3CCS(=O)(=O)CC3)c(F)c2)C(=O)O1)c1ccc(Cl)c(Cl)c1`, the MIC against Staphylococcus aureus [12] is above 64 µg/mL; in the assay on Moraxella catarrhalis [7], above 64 µg/mL; against Streptococcus pneumoniae [18] it was above 64 µg/mL; in [15], 2 µg/mL (≈ 3.88 µM); with Haemophilus influenzae [16] it was above 64 µg/mL.

With `CC(=O)Oc1ccc(/C=C/C(=O)NC[C@H]2CN(c3ccc(C4CC[S+]([O-])CC4)c(F)c3)C(=O)O2)cc1` (stereo not given in full), the MIC against Streptococcus pneumoniae [18] turned out to be 8 µg/mL (≈ 15.5 µM); in [9], 1 µg/mL (≈ 1.94 µM); with Staphylococcus aureus [19] it was 2 µg/mL (≈ 3.89 µM); with Haemophilus influenzae [16] it was 32 µg/mL (≈ 62.2 µM); with Moraxella catarrhalis [17], 8 µg/mL (≈ 15.5 µM).

`O=C(/C=C/c1ccc(F)cc1)NC[C@H]1CN(c2ccc(N3CC[S+]([O-])CC3)c(F)c2)C(=O)O1`: the MIC in the assay on Staphylococcus aureus [20] came out at 4 µg/mL (≈ 8.41 µM); against Haemophilus influenzae [21] it was 32 µg/mL (≈ 67.3 µM); with Enterococcus faecium, 4 µg/mL (≈ 8.41 µM); against Staphylococcus aureus [3], 32 µg/mL (≈ 67.3 µM); in [15], 2 µg/mL (≈ 4.21 µM); against Moraxella catarrhalis [4], 16 µg/mL (≈ 33.6 µM).

`O=C1O[C@@H](CNC(=O)C(F)(F)F)CN1c1ccc(N2CC[S+]([O-])CC2)c(F)c1`: the MIC (against Staphylococcus aureus [12]; against Moraxella catarrhalis [7]; against Enterococcus faecium; in the assay with Staphylococcus aureus [3]; in [15]; against Streptococcus pneumoniae [11]) was above 64 µg/mL each time. Besides, the MIC in the assay with Haemophilus influenzae [16] is above 64 µg/mL.

As for `CC(=O)NC[C@H]1CN(c2ccc(N3CCOCC3)c(F)c2)C(=O)O1` [LINEZOLID], the values for the MIC (against Haemophilus influenzae [22]; with Staphylococcus aureus [3]; in assay [9]) were above 8 µg/mL, 64 µg/mL (≈ 190 µM) and 1 µg/mL (≈ 2.96 µM), respectively. Besides, the ED50 with Mus musculus was 5 mg/kg.

For the compound `O=C(NC[C@H]1CN(c2ccc(N3CC[S+]([O-])CC3)c(F)c2)C(=O)O1)c1csnn1`, the MIC against Moraxella catarrhalis [23] is 32 µg/mL (≈ 72.8 µM); against Enterococcus faecium, 16 µg/mL (≈ 36.4 µM); in the assay on Staphylococcus aureus [3], above 64 µg/mL; in assay [15], 8 µg/mL (≈ 18.2 µM); with Staphylococcus aureus [6], 16 µg/mL (≈ 36.4 µM); in the assay with Haemophilus influenzae [16] it was 64 µg/mL (≈ 146 µM).
